Legend:
Mer = target: T1, Mer (Homo sapiens, UniProt Q12866); assay: LanthaScreen Eu kinase binding assay for Mer; details: read-out: Mer kinase binding activity (Kd)
T1 construct: purchased Life Technologies
T1 sequence (Q12866 21-999): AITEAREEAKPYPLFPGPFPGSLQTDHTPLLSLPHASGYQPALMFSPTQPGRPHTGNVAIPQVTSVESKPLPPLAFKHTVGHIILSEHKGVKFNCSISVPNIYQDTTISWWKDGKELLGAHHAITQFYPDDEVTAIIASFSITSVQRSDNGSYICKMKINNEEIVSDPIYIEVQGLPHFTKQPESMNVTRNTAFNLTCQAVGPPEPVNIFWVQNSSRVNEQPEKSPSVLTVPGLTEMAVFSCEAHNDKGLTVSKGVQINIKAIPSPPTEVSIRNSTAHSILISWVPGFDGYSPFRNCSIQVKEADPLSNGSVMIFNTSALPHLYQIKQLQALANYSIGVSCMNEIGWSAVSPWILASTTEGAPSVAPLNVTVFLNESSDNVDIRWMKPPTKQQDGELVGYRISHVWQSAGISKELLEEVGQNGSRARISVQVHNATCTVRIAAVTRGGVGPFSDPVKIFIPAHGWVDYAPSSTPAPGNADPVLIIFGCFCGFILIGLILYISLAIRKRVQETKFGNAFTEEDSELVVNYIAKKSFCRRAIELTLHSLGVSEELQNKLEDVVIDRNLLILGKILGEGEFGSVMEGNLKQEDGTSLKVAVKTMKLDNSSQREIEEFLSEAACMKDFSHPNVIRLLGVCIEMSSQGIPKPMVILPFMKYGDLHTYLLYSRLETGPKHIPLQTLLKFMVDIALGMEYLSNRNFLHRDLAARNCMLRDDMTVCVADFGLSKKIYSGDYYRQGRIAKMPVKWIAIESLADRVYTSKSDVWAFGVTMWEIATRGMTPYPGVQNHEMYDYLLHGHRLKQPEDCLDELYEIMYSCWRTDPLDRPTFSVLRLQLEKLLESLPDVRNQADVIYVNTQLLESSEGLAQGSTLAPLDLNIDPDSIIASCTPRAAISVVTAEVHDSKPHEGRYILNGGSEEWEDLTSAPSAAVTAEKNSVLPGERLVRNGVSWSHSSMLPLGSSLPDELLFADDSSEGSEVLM
Method in brief: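 Competitive displacement of Alexa Fluor 647-labeled Tracer 236 from the kinase, with binding detected by TR-FRET with a Eu-labeled anti-GST antibody. Compounds were run as 8-step DMSO serial dilutions and incubated 1 h at room temperature. Kd was calculated relative to DMSO vehicle control wells.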

CSF1R (M-NFS-60 cells) = assay: Cell Titer-Glo viability assay using M-NFS-60 cells; assay type: cell-based; details: Mus musculus, read-out: Cellular CSF1R activity by M-NFS-60 viability assay (IC50 activity range)
Method in brief: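 M-NFS-60 cells grown with 62 ng/ml recombinant human M-CSF, seeded at 2×10^5 cells/well and incubated at 37 °C/5% CO2. Compounds given as 3-fold serial dilutions (10 doses); viability read by CellTiter-Glo luminescence, sigmoidal dose-response fit.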

| Structure (SMILES) | Kd (Mer) [µM] | IC50 (CSF1R (M-NFS-60 cells)) [µM] |
| --- | --- | --- |
| CCCn1cc(OCC(F)(F)F)c(C(=O)Nc2ccc(Oc3ccnc4cc(OC)c(OC)cc34)nn2)n1 [Compound 32] | < 0.1 | 1 to 10 |
| COc1cc2nccc(Oc3ccc(NC(=O)c4nn(C5CCCC5)cc4OCC(F)(F)F)nc3)c2cc1OC [Compound 40] | < 0.1 | < 1 |
| COc1cc2nccc(Oc3ccc(NC(=O)c4nn(C5CCCC5)cc4OCC(F)(F)F)cc3C)c2cc1OC [Compound 57] | < 0.1 | < 1 |
| COc1cc2nccc(Oc3ccc(NC(=O)c4nn(CC5CCCCC5)cc4OCC(F)(F)F)nc3)c2cc1OC [Compound 43] | < 0.1 | < 1 |
| COc1cc2nccc(Oc3ccc(NC(=O)c4nn(C(C)(C)C)cc4OCC(F)(F)F)nc3)c2cc1OC [Compound 22] | < 0.1 | < 1 |
| COc1cc2nccc(Oc3ccc(NC(=O)c4nn(C5CC5)c(C(C)=O)c4OCC(F)(F)F)nc3)c2cc1OC [Compound 3] | < 0.1 | ≥ 10 |
| CCCn1cc(OCCF)c(C(=O)Nc2ccc(Oc3ccnc4cc(OC)c(OC)cc34)cn2)n1 [Compound 14] | < 0.1 | < 1 |
| COc1cc2nccc(Oc3ccc(NC(=O)c4nn(CC(C)(F)F)cc4OCC(F)(F)F)nc3)c2cc1OC [Compound 64] | < 0.1 | 1 to 10 |
| COc1cc2nccc(Oc3ccc(NC(=O)c4nn(CC5CCC5)cc4OCC(F)(F)F)nc3)c2cc1OC [Compound 42] | < 0.1 | < 1 |
| COc1cc2nccc(Oc3ccc(NC(=O)c4nn(CCO)cc4OCC(F)(F)F)c(F)c3)c2cc1OC [Compound 46] | < 0.1 | 1 to 10 |
| COc1cc2nccc(Oc3ccc(NC(=O)c4nn(C5CCCCC5)cc4OCC(F)(F)F)nc3)c2cc1OC [Compound 69] | < 0.1 | 1 to 10 |
| COc1cc2nccc(Oc3ccc(NC(=O)c4nn(CCO)cc4OCC(F)(F)F)cc3F)c2cc1OC [Compound 51] | < 0.1 | < 1 |
| CCCn1cc(OCC(F)(F)F)c(C(=O)Nc2ccc(Oc3ccnc4cc(OC)c(OC)cc34)cc2F)n1 [Compound 28] | < 0.1 | 1 to 10 |
| COc1cc2nccc(Oc3ccc(NC(=O)c4nn(C)cc4OCC(F)(F)F)c(F)c3)c2cc1OC [Compound 45] | < 0.1 | 1 to 10 |
| COc1cc2nccc(Oc3ccc(NC(=O)c4nn(CC(C)C)cc4OCC(F)(F)F)c(F)c3)c2cc1OC [Compound 48] | < 0.1 | < 1 |
| CCCn1cc(NCC(F)(F)F)c(C(=O)Nc2ccc(Oc3ccnc4cc(OC)c(OC)cc34)cn2)n1 [Compound 23] | < 0.1 | < 1 |
| CCCn1cc(OCC2CCC2)c(C(=O)Nc2ccc(Oc3ccnc4cc(OC)c(OC(F)(F)F)cc34)cn2)n1 [Compound 167] | < 0.1 | 1 to 10 |
| COc1cc2nccc(Oc3ccc(NC(=O)c4nn(CC(C)N)cc4OCC(F)(F)F)nc3)c2cc1OC (stereo not shown) [Compound 63] | < 0.1 | 1 to 10 |
| COc1cc2nccc(Oc3ccc(NC(=O)c4nn(C5CCCC5)cc4OCC(F)(F)F)cc3)c2cc1OC [Compound 60] | < 0.1 | 1 to 10 |
| COc1cc2nccc(Oc3ccc(NC(=O)c4nn(CC5CCN(C)C5)cc4OCC(F)(F)F)nc3)c2cc1OC (stereo not shown) [Compound 169] | < 0.1 | < 1 |
| COc1cc2nccc(Oc3ccc(NC(=O)c4nn(CC(C)O)cc4OCC4CN(C)C4)nc3)c2cc1OC (stereo not shown) [Compound 174] | ≥ 0.5 | ≥ 10 |
| CCCn1cc(N(C)CC2CCOCC2)c(C(=O)Nc2ccc(Oc3ccnc4cc(OC)c(OC)cc34)cn2)n1 [Compound 34] | 0.1 to 0.5 | 1 to 10 |
| CCn1nc(C(=O)Nc2ccc(Oc3ccnc4cc(OC)c(OC)cc34)cn2)c(OCC(F)(F)F)c1C [Compound 1] | < 0.1 | < 1 |
| COc1cc2nccc(Oc3ccc(NC(=O)c4cc(C5CC5)cnc4OCC(F)(F)F)nc3)c2cc1OC [Compound 178] | < 0.1 | < 1 |
| COc1cc2nccc(Oc3ccc(NC(=O)c4nn(C5CCOC5)cc4OCC(F)(F)F)cc3)c2cc1OC (stereo not shown) [Compound 62] | < 0.1 | 1 to 10 |

| Structure (SMILES) | Kd (Mer) [µM] | IC50 (CSF1R (M-NFS-60 cells)) [µM] |
| --- | --- | --- |
| COc1cc2nccc(Oc3ccc(NC(=O)c4nn(CC(C)C)cc4OCC(F)(F)F)cc3C)c2cc1OC [Compound 58] | < 0.1 | 1 to 10 |
| COc1cc2nccc(Oc3ccc(NC(=O)c4nn(C5CCNC5)cc4OCC(F)(F)F)c(F)c3)c2cc1OC (stereo not shown) [Compound 74] | 0.1 to 0.5 | 1 to 10 |
| COc1cc2nccc(Oc3ccc(NC(=O)c4nn(CC(C)O)cc4OCC(F)(F)F)c(F)c3)c2cc1OC (stereo not shown) [Compound 76] | < 0.1 | 1 to 10 |
| CCCn1cc(OCCN(C)C)c(C(=O)Nc2ccc(Oc3ccnc4cc(OC)c(OC)cc34)cn2)n1 [Compound 177] | 0.1 to 0.5 | 1 to 10 |
| COc1cc2nccc(Oc3ccc(NC(=O)c4nn(CCO)cc4OCC(F)(F)F)cc3)c2cc1OC [Compound 59] | < 0.1 | < 1 |
| COc1cc2nccc(Oc3ccc(NC(=O)c4nn(CCC#N)cc4OCC(F)(F)F)nc3)c2cc1OC [Compound 39] | < 0.1 | < 1 |
| COc1cc2nccc(Oc3ccc(NC(=O)c4nn(CC5CNC5)cc4OCC(F)(F)F)nc3)c2cc1OC [Compound 73] | 0.1 to 0.5 | 1 to 10 |
| COc1cc2nccc(Oc3ccc(NC(=O)c4nn(CC(C)=O)cc4OCC(F)(F)F)nc3)c2cc1OC [Compound 19] | < 0.1 | < 1 |
| COCCn1cc(OCC(F)(F)F)c(C(=O)Nc2ccc(Oc3ccnc4cc(OC)c(OC)cc34)cc2F)n1 [Compound 49] | < 0.1 | 1 to 10 |
| COc1cc2nccc(Oc3ccc(NC(=O)c4nn(CCNC5CC5)cc4OCC(F)(F)F)nc3)c2cc1OC [Compound 168] | < 0.1 | < 1 |
| COc1cc2nccc(Oc3ccc(NC(=O)c4nn(C5CCNC5)cc4OCC(F)(F)F)nc3)c2cc1OC (stereo not shown) [Compound 70] | < 0.1 | 1 to 10 |
| CCCn1cc(OCCC(F)(F)F)c(C(=O)Nc2ccc(Oc3ccnc4cc(OC)c(OC)cc34)cn2)n1 [Compound 31] | < 0.1 | < 1 |
| COc1cc2nccc(Oc3ccc(NC(=O)c4nn(C)cc4OCC(F)(F)F)nc3)c2cc1OC [Compound 33] | < 0.1 | < 1 |
| CCCn1cc(OCC(F)(F)F)c(C(=O)Nc2ccc(Oc3ccnc4cc(OC)c(OC)cc34)c(C)c2)n1 [Compound 26] | < 0.1 | 1 to 10 |
| COc1cc2nccc(Oc3ccc(NC(=O)c4nn(CCC(F)(F)F)cc4OCC4CCC4)nc3)c2cc1OC [Compound 166] | < 0.1 | 1 to 10 |
| COc1cc2nccc(Oc3ccc(NC(=O)c4nn(C5CC5)cc4OCC4CNC4)nn3)c2cc1OC [Compound 172] | ≥ 0.5 | ≥ 10 |
| COc1cc2nccc(Oc3ccc(NC(=O)c4nn(C)cc4OCC(F)(F)F)cc3C)c2cc1OC [Compound 37] | < 0.1 | < 1 |
| CCCn1cc(OCC(F)(F)F)c(C(=O)Nc2ccc(Oc3ccnc4cc(OC)c(OC)cc34)cc2C)n1 [Compound 27] | < 0.1 | 1 to 10 |
| COc1cc2nccc(Oc3ccc(NC(=O)c4nn(C)cc4OCC(F)(F)F)cc3F)c2cc1OC [Compound 50] | < 0.1 | 1 to 10 |
| COc1cc2nccc(Oc3ccc(NC(=O)c4nn(CCO)cc4OCC(F)(F)F)cc3C)c2cc1OC [Compound 56] | < 0.1 | < 1 |
| COc1cc2nccc(Oc3ccc(NC(=O)c4nn(C5COC5)cc4OCC(F)(F)F)nc3)c2cc1OC [Compound 66] | < 0.1 | 1 to 10 |
| COCCn1cc(OCC(F)(F)F)c(C(=O)Nc2ccc(Oc3ccnc4cc(OC)c(OC)cc34)cc2)n1 [Compound 61] | < 0.1 | 1 to 10 |
| COc1cc2nccc(Oc3ccc(NC(=O)c4nn(CCOC5CCC5)cc4OCC(F)(F)F)nc3)c2cc1OC [Compound 65] | < 0.1 | 1 to 10 |
| COc1cc2nccc(Oc3ccc(NC(=O)c4nc(CCC(F)(F)F)oc4CCC4CCC4)nc3)c2cc1OC [Compound 176] | 0.1 to 0.5 | 1 to 10 |
| COc1cc2nccc(Oc3ccc(NC(=O)c4nn(CCO)cc4OCC(F)(F)F)nc3)c2cc1OC [Compound 67] | < 0.1 | 1 to 10 |

— patent US12162858B2, “Quinoline derivatives as inhibitors of AXL/MER RTK and CSF1R” (QURIENT CO., LTD., priority 2018, dated 2024)
